Tests used:
[1] = target: BTK (phospho-BTK) in human whole blood (Homo sapiens, UniProt Q06187); assay: In vitro PD assay in human whole blood (pBTK assay)
BTK enzyme = target: T1, BTK enzyme (Homo sapiens, UniProt Q06187); assay: In vitro BTK kinase assay: BTK-POLYGAT-LS assay; type: biochemical; conditions: ATP 10 μM, read-out: IC50 (10uMATP)
T1 construct: purchased Upstate 14-552
Method in brief: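 Human BTK activity was measured with final 10 μM ATP and 100 nM polyGAT substrate in pH 7.5 Tris buffer with 10 mM MgCl2, DTT, Triton X-100 and casein.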

T1 sequence (Q06187 whole entry): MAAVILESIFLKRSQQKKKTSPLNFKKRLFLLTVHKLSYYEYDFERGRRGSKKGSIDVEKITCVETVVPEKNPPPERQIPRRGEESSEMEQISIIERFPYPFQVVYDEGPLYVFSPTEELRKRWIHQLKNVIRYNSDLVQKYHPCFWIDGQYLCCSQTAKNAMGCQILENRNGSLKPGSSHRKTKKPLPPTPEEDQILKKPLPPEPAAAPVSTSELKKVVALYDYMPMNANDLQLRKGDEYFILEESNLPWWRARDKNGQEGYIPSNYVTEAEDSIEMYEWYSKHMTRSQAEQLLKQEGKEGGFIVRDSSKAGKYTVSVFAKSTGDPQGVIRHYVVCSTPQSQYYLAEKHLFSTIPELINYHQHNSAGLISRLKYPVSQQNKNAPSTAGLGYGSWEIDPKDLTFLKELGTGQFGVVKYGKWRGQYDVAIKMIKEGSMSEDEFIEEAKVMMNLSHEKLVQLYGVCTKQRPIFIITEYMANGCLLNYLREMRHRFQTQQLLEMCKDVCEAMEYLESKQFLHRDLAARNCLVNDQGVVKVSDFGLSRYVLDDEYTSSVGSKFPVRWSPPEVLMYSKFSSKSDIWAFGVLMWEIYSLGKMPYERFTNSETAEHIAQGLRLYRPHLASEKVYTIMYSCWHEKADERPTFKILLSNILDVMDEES
Chain of BTK (phospho-BTK) in human whole blood (Q06187 whole entry): as above

Row | SMILES | IC50 [1] [nM] | IC50 (BTK enzyme) [nM]
1 | CC(C)(C)OC1CN(C(=O)NC2CCCCc3cc(-c4cc(Nc5cc6n(n5)CCOC6)ncn4)ccc32)C1 (stereo not shown) [Example I-332, 3-tert-butoxy-N-[2-[6-(6,7-dihydro-4H-pyrazolo[5,1-c][1,4]oxazin-2-ylamino)pyrimidin-4-yl]-6,7,8,9-tetrahydro-5H-benzo[7]annulen-5-yl]azetidine-1-carboxamide] | < 500 | < 10
2 | CC(C)(C)OC1CN(C(=O)NC2CCCCc3cc(-c4ccnc(Nc5cnn([C@H]6CCOC6)c5)n4)ccc32)C1 (stereo partly drawn) [Example I-334, 3-tert-butoxy-N-[2-[2-[[1-[(3S)-tetrahydrofuran-3-yl]pyrazol-4-yl]amino]pyrimidin-4-yl]-6,7,8,9-tetrahydro-5H-benzo[7]annulen-5-yl]azetidine-1-carboxamide] | < 500 | < 10
3 | CC(C)(O)Cn1cc(Nc2nccc(-c3ccc4c(c3)CCCCC4NC(=O)N3CC(OC(C)(C)C)C3)n2)cn1 (stereo not shown) [Example I-337, 3-tert-butoxy-N-[2-[2-[[1-(2-hydroxy-2-methyl-propyl)pyrazol-4-yl]amino]pyrimidin-4-yl]-6,7,8,9-tetrahydro-5H-benzo[7]annulen-5-yl]azetidine-1-carboxamide] | < 500 | < 10
4 | CC(C)(C)OC1CN(C(=O)NC2CCCCc3cc(-c4ccnc(Nc5cnn(C6CCNCC6)c5)n4)ccc32)C1 (stereo not shown) [Example I-343, 3-tert-butoxy-N-[2-[2-[[1-(4-piperidyl)pyrazol-4-yl]amino]pyrimidin-4-yl]-6,7,8,9-tetrahydro-5H-benzo[7]annulen-5-yl]azetidine-1-carboxamide] | < 500 | < 10
5 | Cc1c(Nc2nccc(-c3ccc4c(c3)CCCCC4NC(=O)N3CC(OC(C)(C)C)C3)n2)cnn1C (stereo not shown) [Example I-347, 3-tert-butoxy-N-[2-[2-[(1,5-dimethylpyrazol-4-yl)amino]pyrimidin-4-yl]-6,7,8,9-tetrahydro-5H-benzo[7]annulen-5-yl]azetidine-1-carboxamide] | < 500 | < 10
6 | CC(C)(C)CN1CCN(Cc2ccc(-c3ccnc(Nc4cnn(CCO)c4)n3)cc2C(F)(F)F)C(=O)C1 [Example I-350] | < 500 | < 10
7 | COCCn1cc(Nc2nccc(-c3ccc(CNC(=O)N4CC(OC(C)C)C4)c(C(F)(F)F)c3)n2)cn1 [Example I-351, 3-isopropoxy-N-[[4-[2-[[1-(2-methoxyethyl)pyrazol-4-yl]amino]pyrimidin-4-yl]-2-(trifluoromethyl)phenyl]methyl]azetidine-1-carboxamide] | < 500 | < 10
8 | CC(C)OC1CN(C(=O)NCc2ccc(-c3ccnc(Nc4cnn(C5CN(C)C5)c4)n3)cc2Cl)C1 [Example I-353, N-[[2-chloro-4-[2-[[1-(1-methylazetidin-3-yl)pyrazol-4-yl]amino]pyrimidin-4-yl]phenyl]methyl]-3-isopropoxy-azetidine-1-carboxamide] | < 500 | < 10
9 | CN1CC(n2cc(Nc3nccc(-c4ccc(CNC(=O)c5cc(C(C)(C)C)on5)c(Cl)c4)n3)cn2)C1 [Example I-354, 5-tert-butyl-N-[[2-chloro-4-[2-[[1-(1-methylazetidin-3-yl)pyrazol-4-yl]amino]pyrimidin-4-yl]phenyl]methyl]isoxazole-3-carboxamide] | < 500 | < 10
10 | CN1CC(n2cc(Nc3nccc(-c4ccc(CNC(=O)c5cc(C(C)(C)C)on5)c(C(F)(F)F)c4)n3)cn2)C1 [Example I-355, 5-tert-butyl-N-[[4-[2-[[1-(1-methylazetidin-3-yl)pyrazol-4-yl]amino]pyrimidin-4-yl]-2-(trifluoromethyl)phenyl]methyl]isoxazole-3-carboxamide] | < 500 | < 10
11 | CN1CC(n2cc(Nc3nccc(-c4ccc(CNC(=O)c5cnn(C(C)(C)C)c5)c(Cl)c4)n3)cn2)C1 [Example I-356, 1-tert-butyl-N-[[2-chloro-4-[2-[[1-(1-methylazetidin-3-yl)pyrazol-4-yl]amino]pyrimidin-4-yl]phenyl]methyl]pyrazole-4-carboxamide] | < 500 | < 10
12 | Cc1cc(-c2cc(Nc3ccn([C@@H]4CCOC4)n3)ncn2)ccc1CNC(=O)c1cnc(C(C)(C)C)s1 [Example I-357, 2-tert-butyl-N-[[2-methyl-4-[6-[[1-[(3R)-tetrahydrofuran-3-yl]pyrazol-3-yl]amino]pyrimidin-4-yl]phenyl]methyl]thiazole-5-carboxamide] | < 500 | < 10

Continued, values first:

Row | IC50 [1] [nM] | IC50 (BTK enzyme) [nM] | SMILES
13 | < 500 | < 10 | CC(C)(C)C1CCN(C(=O)NC2CCCCc3cc(-c4ccnc(Nc5cnn(C6CCOCC6)c5)n4)ccc32)C1 (stereo not shown) [Example I-330, 3-tert-butyl-N-[2-[2-[(1-tetrahydropyran-4-ylpyrazol-4-yl)amino]pyrimidin-4-yl]-6,7,8,9-tetrahydro-5H-benzo[7]annulen-5-yl]pyrrolidine-1-carboxamide]
14 | < 500 | < 10 | CCOC1CN(C(=O)NC2CCCCc3cc(-c4ccnc(Nc5cnn(C)c5)n4)ccc32)C1 (stereo not shown) [Example I-331, 3-ethoxy-N-[2-[2-[(1-methylpyrazol-4-yl)amino]pyrimidin-4-yl]-6,7,8,9-tetrahydro-5H-benzo[7]annulen-5-yl]azetidine-1-carboxamide]
15 | < 500 | < 10 | CC(C)OC1CN(C(=O)NC2CCCCc3cc(-c4ccnc(Nc5cnn([C@@H]6CCOC6)c5)n4)ccc32)C1 (stereo partly drawn) [Example I-333, 3-isopropoxy-N-[2-[2-[[1-[(3R)-tetrahydrofuran-3-yl]pyrazol-4-yl]amino]pyrimidin-4-yl]-6,7,8,9-tetrahydro-5H-benzo[7]annulen-5-yl]azetidine-1-carboxamide]
16 | < 500 | < 10 | CC(C)OC1CN(C(=O)NC2CCCOc3cc(-c4ccnc(Nc5cnn(C)c5)n4)ccc32)C1 (stereo not shown) [Example I-335, 3-isopropoxy-N-[8-[2-[(1-methylpyrazol-4-yl)amino]pyrimidin-4-yl]-2,3,4,5-tetrahydro-1-benzoxepin-5-yl]azetidine-1-carboxamide]
17 | < 500 | < 10 | CC(C)OC1CN(C(=O)NC2CCCCc3cc(-c4ccnc(Nc5cnn(CC(C)(C)O)c5)n4)ccc32)C1 (stereo not shown) [Example I-336, N-[2-[2-[[1-(2-hydroxy-2-methyl-propyl)pyrazol-4-yl]amino]pyrimidin-4-yl]-6,7,8,9-tetrahydro-5H-benzo[7]annulen-5-yl]-3-isopropoxy-azetidine-1-carboxamide]
18 | < 500 | < 10 | CC(C)OC1CN(C(=O)NC2CCCCc3cc(-c4ccnc(Nc5cnn([C@H]6CCOC6)c5)n4)ccc32)C1 (stereo partly drawn) [Example I-338, 3-isopropoxy-N-[2-[2-[[1-[(3S)-tetrahydrofuran-3-yl]pyrazol-4-yl]amino]pyrimidin-4-yl]-6,7,8,9-tetrahydro-5H-benzo[7]annulen-5-yl]azetidine-1-carboxamide]
19 | < 500 | 10 to 99 | COC1CN(C(=O)NC2CCCCc3cc(-c4ccnc(Nc5cnn(C)c5)n4)ccc32)C1 (stereo not shown) [Example I-339, 3-methoxy-N-[2-[2-[(1-methylpyrazol-4-yl)amino]pyrimidin-4-yl]-6,7,8,9-tetrahydro-5H-benzo[7]annulen-5-yl]azetidine-1-carboxamide]
20 | < 500 | < 10 | CCn1cc(Nc2nccc(-c3ccc4c(c3)CCCCC4NC(=O)N3CCC(C(C)C)C3)n2)cn1 (stereo not shown) [Example I-341, N-[2-[2-[(1-ethylpyrazol-4-yl)amino]pyrimidin-4-yl]-6,7,8,9-tetrahydro-5H-benzo[7]annulen-5-yl]-3-isopropyl-pyrrolidine-1-carboxamide]
21 | < 500 | < 10 | CC(C)C1CCN(C(=O)NC2CCCCc3cc(-c4ccnc(Nc5cnn(C6CCOCC6)c5)n4)ccc32)C1 (stereo not shown) [Example I-342, 3-isopropyl-N-[2-[2-[(1-tetrahydropyran-4-ylpyrazol-4-yl)amino]pyrimidin-4-yl]-6,7,8,9-tetrahydro-5H-benzo[7]annulen-5-yl]pyrrolidine-1-carboxamide]
22 | < 500 | < 10 | CC(C)C1CCN(C(=O)NC2CCCCc3cc(-c4ccnc(Nc5cnn([C@@H]6CCOC6)c5)n4)ccc32)C1 (stereo partly drawn) [Example I-344, 3-isopropyl-N-[2-[2-[[1-[(3R)-tetrahydrofuran-3-yl]pyrazol-4-yl]amino]pyrimidin-4-yl]-6,7,8,9-tetrahydro-5H-benzo[7]annulen-5-yl]pyrrolidine-1-carboxamide]
23 | < 500 | < 10 | CC(C)C1CCN(C(=O)NC2CCCCc3cc(-c4ccnc(Nc5cnn([C@H]6CCOC6)c5)n4)ccc32)C1 (stereo partly drawn) [Example I-345, 3-isopropyl-N-[2-[2-[[1-[(3S)-tetrahydrofuran-3-yl]pyrazol-4-yl]amino]pyrimidin-4-yl]-6,7,8,9-tetrahydro-5H-benzo[7]annulen-5-yl]pyrrolidine-1-carboxamide]
24 | < 500 | < 10 | CC(C)OC1CN(C(=O)NC2CCN(CCO)Cc3cc(-c4ccnc(Nc5cnn(C)c5)n4)ccc32)C1 (stereo not shown) [Example I-346, N-[2-(2-hydroxyethyl)-8-[2-[(1-methylpyrazol-4-yl)amino]pyrimidin-4-yl]-1,3,4,5-tetrahydro-2-benzazepin-5-yl]-3-isopropoxy-azetidine-1-carboxamide]
25 | < 500 | < 10 | CC(C)OC1CN(C(=O)NC2CCCCc3cc(-c4ccnc(Nc5cnn(C6CCN(C)CC6F)c5)n4)ccc32)C1 (stereo not shown) [Example I-348, N-[2-[2-[[1-(3-fluoro-1-methyl-4-piperidyl)pyrazol-4-yl]amino]pyrimidin-4-yl]-6,7,8,9-tetrahydro-5H-benzo[7]annulen-5-yl]-3-isopropoxy-azetidine-1-carboxamide]
26 | < 500 | 10 to 99 | CC(C)OC1CN(C(=O)NC2CNCCc3cc(-c4ccnc(Nc5cnn(C)c5)n4)ccc32)C1 (stereo not shown) [Example I-352, 3-isopropoxy-N-[7-[2-[(1-methylpyrazol-4-yl)amino]pyrimidin-4-yl]-2,3,4,5-tetrahydro-1H-3-benzazepin-1-yl]azetidine-1-carboxamide]

Reference: patent US10759783B2, “Biaryl inhibitors of Bruton'S tyrosine kinase” (BIOGEN MA INC., priority 2013, dated 2020)
